Test results: US9932354B2, “Imidazo-oxadiazole and imidazo-thiadiazole derivatives” (Ares Trading S.A., priority 2012, dated 2018)

How the values were obtained:
[1] = tested on: Amyloid-β peptide release (Aβ42), HEK cells overexpressing APP (HEK-APP); assay: Amyloid-β peptide release (Aβ42) assay, AlphaLISA on supernatant of HEK-APP cells; assay type: cell-based; conditions: Homo sapiens, HEK293, 24 h incubation with compound, read-out: Ab42 IC50 Ranges
Summary of the method: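 HEK-APP cells treated with compounds for 24 h at 37 °C, 5% CO2. Supernatant Aβ42 or total Aβ measured by AlphaLISA after 4.5 h with antibody beads (6E10 acceptor beads for total). IC50 values derived.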

[2] = tested on: Amyloid-β peptide release (AβTotal), HEK cells overexpressing APP (HEK-APP); assay: Amyloid-β peptide release (AβTotal) assay, AlphaLISA on supernatant of HEK-APP cells; assay type: cell-based; conditions: ratio Abtot vs Ab42, HEK-APP cells, 24 h

| SMILES | IC50 [1] | Abtot/Ab42 selectivity ranges [2] |
| --- | --- | --- |
| Cc1ncc2sc(-c3nnc(NCc4ccccc4F)o3)nn12 [Example 104, (2-Fluoro-benzyl)-[5-(5-methyl-imidazo[5,1-b][1,3,4]thiadiazol-2-yl)-[1,3,4]oxadiazol-2-yl]-amine] | 1000 to 2200 nM | d (d: 10 fold > selectivity) |
| Cc1ncc2sc(C(=O)N3CCCC3c3ccc(Br)cc3)nn12 (stereo not shown) [Example 110, [2-(4-Bromo-phenyl)-pyrrolidin-1-yl]-(5-methyl-imidazo[5,1-b][1,3,4]thiadiazol-2-yl)-methanone] | < 100 nM | d (d: 10 fold > selectivity) |
| Cc1ncc2oc(-c3ccc(NC(=O)Cc4ccc(C(F)(F)F)cc4)cc3)nn12 [Example 48, N-[4-(5-Methyl-imidazo[5,1-b][1,2,4]oxadiazol-2-yl)-phenyl]-2-(4-trifluoromethyl-phenyl)-acetamide] | 1000 to 2200 nM | c (c: 50 fold > selectivity ≥ 10 fold) |
| COc1cc(C(=O)NCc2ccc(Cl)c(Cl)c2)ccc1-c1nn2c(C)ncc2o1 [Example 19, N-(3,4-Dichloro-benzyl)-3-methoxy-4-(5-methyl-imidazo[5,1-b][1,2,4]oxadiazol-2-yl)-benzamide] | 1000 to 2200 nM | c (c: 50 fold > selectivity ≥ 10 fold) |
| Cc1ncc2oc(-c3ccc(NC(=O)NCc4ccccc4Cl)cc3)nn12 [Example 54, 1-(2-Chloro-benzyl)-3-[4-(5-methyl-imidazo[5,1-b][1,2,4]oxadiazol-2-yl)-phenyl]-urea] | 1000 to 2200 nM | c (c: 50 fold > selectivity ≥ 10 fold) |
| Cc1ncc2oc(-c3ccc(C(=O)NCc4csc5ccc(Cl)cc45)cc3)nn12 [Example 88, N-((5-chlorobenzo[b]thiophen-3-yl)methyl)-4-(5-methylimidazo[5,1-b][1,3,4]oxadiazol-2-yl)benzamide] | 1000 to 2200 nM | c (c: 50 fold > selectivity ≥ 10 fold) |
| Cc1ncc2oc(-c3ccc(NC(=O)Nc4ccccc4C(F)(F)F)cc3)nn12 [Example 58, 1-[4-(5-Methyl-imidazo[5,1-b][1,2,4]oxadiazol-2-yl)-phenyl]-3-(2-trifluoromethyl-phenyl)-urea] | 500 to 1000 nM | d (d: 10 fold > selectivity) |
| Cc1ncc2oc(-c3ccc(NC(=O)C4(c5ccc(Cl)cc5)CCC4)cn3)nn12 [Example 84, 1-(4-Chloro-phenyl)-cyclobutanecarboxylic acid [6-(5-methyl-imidazo[5,1-b][1,2,4]oxadiazol-2-yl)-pyridin-3-yl]-amide] | 500 to 1000 nM | c (c: 50 fold > selectivity ≥ 10 fold) |
| Cc1ncc2sc(C(=O)N3CCCCC3c3ccccc3)nn12 (stereo not shown) [Example 108, (5-Methyl-imidazo[5,1-b][1,3,4]thiadiazol-2-yl)-(2-phenyl-piperidin-1-yl)-methanone] | 500 to 1000 nM | d (d: 10 fold > selectivity) |
| Cc1ncc2oc(-c3ccc(Nc4nc5n(n4)CCCC5c4ccc(F)cc4)cc3)nn12 (stereo not shown) [Example 24, 8-(4-fluorophenyl)-N-(4-(5-methylimidazo[5,1-b][1,3,4]oxadiazol-2-yl)phenyl)-5,6,7,8-tetrahydro-[1,2,4]triazolo[1,5-a]pyridin-2-amine] | 500 to 1000 nM | c (c: 50 fold > selectivity ≥ 10 fold) |
| COc1cc(NC(=O)Cc2cccc3ccccc23)ccc1-c1nn2c(C)ncc2s1 [Example 125, N-[3-Methoxy-4-(5-methyl-imidazo[5,1-b][1,3,4]thiadiazol-2-yl)-phenyl]-2-naphthalen-1-yl-acetamide] | 100 to 500 nM | c (c: 50 fold > selectivity ≥ 10 fold) |
| Cc1ncc2oc(-c3ccc(Nc4nc5c(s4)CCCC5c4ccccc4)cc3)nn12 (stereo not shown) [Example 26, [4-(5-Methyl-imidazo[5,1-b][1,2,4]oxadiazol-2-yl)-phenyl]-(4-phenyl-4,5,6,7-tetrahydro-benzothiazol-2-yl)-amine] | 1000 to 2200 nM | c (c: 50 fold > selectivity ≥ 10 fold) |
| Cc1ncc2sc(C(=O)NCc3ccccc3OCC(F)(F)F)nn12 [Example 92, 5-Methyl-imidazo[5,1-b][1,3,4]thiadiazole-2-carboxylic acid 2-(2,2,2-trifluoro-ethoxy)-benzylamide] | < 100 nM | d (d: 10 fold > selectivity) |
| Cc1ncc2sc(C(=O)NCc3ccccc3-c3ccccc3)nn12 [Example 111, 5-Methyl-imidazo[5,1-b][1,3,4]thiadiazole-2-carboxylic acid (biphenyl-2-ylmethyl)-amide] | 1000 to 2200 nM | d (d: 10 fold > selectivity) |
